Measurements: patent US20260226071A1, “2, 4-DIANILINOPYRIMIDINE-BASED AURORA-A KINASE SELECTIVE DEGRADATION INDUCING COMPOUNDS” (UPPTHERA, INC., priority 2023, published 2026)
pIC50: −log10 of the molar value.

Key:
[1] = target: T1, Aurora kinase A (AURKA) (Homo sapiens, UniProt O14965); assay: Luciferase assay for AURKA in HeLa LgBit (AURKA-HiBit KI) cell line; type: cell-based; conditions: HeLa LgBit (AURKA-HiBit KI) cells, measured after 12 hours
T1 construct: endogenous in cells; host or cells: HeLa LgBit (AURKA-HiBit KI), CRISPR/Cas9 knock-in at the endogenous AURKA locus
T1 sequence (O14965 1-403): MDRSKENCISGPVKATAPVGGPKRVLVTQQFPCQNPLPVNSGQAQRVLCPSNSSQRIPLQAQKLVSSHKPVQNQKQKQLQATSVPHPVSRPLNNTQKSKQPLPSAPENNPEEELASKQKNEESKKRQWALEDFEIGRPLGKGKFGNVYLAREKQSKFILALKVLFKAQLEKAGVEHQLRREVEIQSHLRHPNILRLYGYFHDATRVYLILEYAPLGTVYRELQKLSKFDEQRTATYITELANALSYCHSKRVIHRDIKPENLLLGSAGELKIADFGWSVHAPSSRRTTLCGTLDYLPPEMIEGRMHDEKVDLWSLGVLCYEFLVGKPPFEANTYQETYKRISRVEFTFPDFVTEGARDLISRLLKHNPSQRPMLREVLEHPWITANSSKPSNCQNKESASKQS
In short: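 Test compounds (10 nM or 100 nM) added to AURKA-HiBit knock-in HeLa LgBit cells that had been pre-loaded with Endurazine for 2 h following an 18 h culture at 3×10^4 cells. Endogenous AURKA-HiBit level followed by luminescence (470-480 nm), measured after 12 h.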

[2] = test system: NCI-H446 cell line; assay: Cell viability assay for NCI-H446 cell line; type: cell-based; conditions: Homo sapiens, NCI-H446, 120 h; H446 cells, 5 days culture, EZ-Cytox; read-out: IC50 value (Level)
Text: The NCI-H446 (hereafter H446) cell lines were provided from American Type Culture Collection (ATCC). For cell culture, RPMI medium 1640 (Gibco, Cat. No. 22400-089; Lot. No. 2522717), FBS (Gibco, Cat. No. 16000-044; Lot. No. 2716756P), Penicillin/Streptomycin (PS) (Gibco, Cat. No. 15140-122; Lot. No. 2585636), 75T cell culture flask (SPL, Cat. No. 70075), 96 well cell culture plate (SPL, Cat. No. 30096), PBS pH 7.4 (Gibco, Cat. No. 10010-023; Lot. No. 2561466), TrypLE™ Express (Gibco, Cat. No. 12605-010; Lot. No. 2492811), counting chamber (hematocytometer) (Hirschmann, Cat. No. 8100204) and 0.4% Trypan Blue solution (DYNEBIO, Cat. No. CBT3710; Lot. No. 20231017) were used. Cells were cultured in RPMI 1640 medium supplemented with 10% FBS and 1% PS and incubated at 37° C., 5% CO2 condition in CO2 incubator (ThermoScientific, Cat. No. 4111).
For experiment, the present compounds were fully dissolved in DMSO (Sigma-Aldrich Cat. No. D2438, Lot. No. RNBL7287.
In each well of 96-well cell culture plate, […] cells of H446 cell lines were seeded in 150 μl of total medium volume. After 24 hours of cell seeding, the present compounds were treated.
The present compounds were each diluted 3-folds from the highest concentration of 1000 nM to the lowest concentration of 0.15 nM. The compound was added to each well to make the total volume of […] and the cells were cultured for 5 days in CO2 incubator (Thermo Fisher Science, Cat. No. 4111).
Thereafter, 20 μl of EZ-Cytox (DOGEN, Cat. NO. EZ-3000, Lot. No. DLS2308) was added to each well and the cells were cultured for 4 hours at the same condition in CO2 incubator. After culture, the absorbance of the sample was measured by setting the wavelength of a plate reader (BMG Labtech, CLARIOstar Plus) to […]. The samples were shaked for 2 minutes in the plate reader before measurement.

Row | luminescence value (Level) ([1]; 10 nM compound) | luminescence value (Level) ([1]; 100 nM compound) | Compound | pIC50 [2]
1 | B (B is 0.3 to 0.5) | A (A is <0.2) | COc1cc(N2CCN(CCC3CCN(NC(=O)c4ccc(Nc5ncc(F)c(Nc6ccc(C(=O)Nc7ccccc7Cl)cc6)n5)cc4)CC3)CC2)c(F)cc1C1CCC(=O)NC1=O (stereo not drawn) [Compound 118, N-(2-chlorophenyl)-4-((2-((4-((4-(2-(4-(4-(2,6-dioxopiperidin-3-yl)-2-fluoro-5-methoxyphenyl)piperazin-1-yl)ethyl)piperidin-1-yl)carbamoyl)phenyl)amino)-5-fluoropyrimidin-4-yl)amino)benzamide] | 7.00 to 7.30
2 | A (A is <0.3) | A (A is <0.2) | COc1cc(N2CCN(CCC3CCN(NC(=O)c4ccc(Nc5ncc(F)c(Nc6ccc(C(=O)Nc7ccccc7Cl)cc6)n5)cc4)CC3)CC2)c(F)cc1NC1CCC(=O)NC1=O (stereo not drawn) [Compound 117, N-(2-chlorophenyl)-4-((2-((4-((4-(2-(4-(4-((2,6-dioxopiperidin-3-yl)amino)-2-fluoro-5-methoxyphenyl)piperazin-1-yl)ethyl)piperidin-1-yl)carbamoyl)phenyl)amino)-5-fluoropyrimidin-4-yl)amino)benzamide] | > 7.30
3 | A (A is <0.3) | A (A is <0.2) | O=C1CCC(c2cc(F)c(N3CCN(CCC4CCN(NC(=O)c5ccc(Nc6ncc(F)c(Nc7ccc(NC(=O)c8ccccc8F)cc7)n6)cc5F)CC4)CC3)cc2F)C(=O)N1 (stereo not drawn) [Compound 112, N-[4-[2-[4-[4-(2,6-dioxo-3-piperidyl)-2,5-difluoro-phenyl]piperazin-1-yl]ethyl]-1-piperidyl]-2-fluoro-4-[[5-fluoro-4-[4-[(2-fluorobenzoyl)amino]anilino]pyrimidin-2-yl]amino]benzamide] | > 7.30
4 | B (B is 0.3 to 0.5) | A (A is <0.2) | CN(CC1CCN(c2ccc(C3CCC(=O)NC3=O)cc2F)CC1)[C@H]1C[C@H](NC(=O)c2ccc(Nc3ncc(F)c(Nc4ccc(C(=O)Nc5ccccc5Cl)cc4)n3)cc2)C1 (stereo partly drawn) [Compound 76, N-(2-chlorophenyl)-4-((2-((4-(((1r,3r)-3-(((1-(4-(2,6-dioxopiperidin-3-yl)-2-fluorophenyl)piperidin-4-yl)methyl)(methyl)amino)cyclobutyl)carbamoyl)phenyl)amino)-5-fluoropyrimidin-4-yl)amino)benzamide] | 7.00 to 7.30
5 | A (A is <0.3) | A (A is <0.2) | CN(CC1CCN(c2ccc(NC3CCC(=O)NC3=O)cc2)CC1)[C@H]1CC[C@H](NC(=O)c2ccc(Nc3ncc(F)c(Nc4ccc(C(=O)Nc5ccccc5Cl)cc4)n3)cc2)CC1 (stereo partly drawn) [Compound 69, N-(2-chlorophenyl)-4-((2-((4-(((1r,4r)-4-(((1-(4-((2,6-dioxopiperidin-3-yl)amino)phenyl)piperidin-4-yl)methyl)(methyl)amino)cyclohexyl)carbamoyl)phenyl)amino)-5-fluoropyrimidin-4-yl)amino)benzamide] | 7.00 to 7.30
6 | C (C is 0.5 to 0.7) | A (A is <0.2) | CN(CC1CCN(c2ccc(C3CCC(=O)NC3=O)cc2)CC1)C1CCC(NC(=O)c2ccc(Nc3ncc(F)c(Nc4ccc(C(=O)Nc5ccccc5Cl)cc4)n3)cc2)CC1 (stereo not drawn) [Compound 4, N-(2-chlorophenyl)-4-((2-((4-((4-(((1-(4-(2,6-dioxopiperidin-3-yl)phenyl)piperidin-4-yl)methyl)(methyl)amino)cyclohexyl)carbamoyl)phenyl)amino)-5-fluoropyrimidin-4-yl)amino)benzamide] | 6.82 to 7.00
7 | B (B is 0.3 to 0.5) | A (A is <0.2) | CC(CN1CCN(c2ccc(C3CCC(=O)NC3=O)cc2)CC1)N1CCC(NC(=O)c2ccc(Nc3ncc(F)c(Nc4ccc(C(=O)Nc5ccccc5Cl)cc4)n3)cc2)CC1 (stereo not drawn) [Compound 67, N-(2-chlorophenyl)-4-((2-((4-((1-(1-(4-(4-(2,6-dioxopiperidin-3-yl)phenyl)piperazin-1-yl)propan-2-yl)piperidin-4-yl)carbamoyl)phenyl)amino)-5-fluoropyrimidin-4-yl)amino)benzamide] | 6.82 to 7.00
8 | A (A is <0.3) | A (A is <0.2) | O=C1CC[C@@H](Nc2ccc(N3CCN(CCC4CCN(NC(=O)c5ccc(Nc6ncc(F)c(Nc7ccc(C(=O)Nc8ccccc8Cl)cc7)n6)cc5)CC4)CC3)cc2F)C(=O)N1 [Compound 111, (R)—N-(2-chlorophenyl)-4-((2-((4-((4-(2-(4-(4-((2,6-dioxopiperidin-3-yl)amino)-3-fluorophenyl)piperazin-1-yl)ethyl)piperidin-1-yl)carbamoyl)phenyl)amino)-5-fluoropyrimidin-4-yl)amino)benzamide] | > 7.30
9 | A (A is <0.3) | A (A is <0.2) | O=C1CCC(c2ccc(N3CCN(CCN4CCC(NC(=O)c5ccc(Nc6ncc(F)c(Nc7ccc(C(=O)Nc8ccccc8Cl)cc7)n6)cc5)CC4)CC3)cc2)C(=O)N1 (stereo not drawn) [Compound 18, N-(2-chlorophenyl)-4-((2-((4-((1-(2-(4-(4-(2,6-dioxopiperidin-3-yl)phenyl)piperazin-1-yl)ethyl)piperidin-4-yl)carbamoyl)phenyl)amino)-5-fluoropyrimidin-4-yl)amino) benzamide] | > 7.30
10 | A (A is <0.3) | A (A is <0.2) | O=C1CCC(Nc2ccc(N3CCN(CCC4CCN(NC(=O)c5ccc(Nc6ncc(F)c(Nc7ccc(C(=O)Nc8ccccc8Cl)cc7)n6)cc5)CC4)CC3)cc2)C(=O)N1 (stereo not drawn) [Compound 43, N-(2-chlorophenyl)-4-((2-((4-((4-(2-(4-(4-((2,6-dioxopiperidin-3-yl)amino)phenyl)piperazin-1-yl)ethyl)piperidin-1-yl)carbamoyl)phenyl)amino)-5-fluoropyrimidin-4-yl)amino)benzamide] | > 7.30
11 | B (B is 0.3 to 0.5) | A (A is <0.2) | O=C1CCC(c2ccc(N3CC(CN4CCC(NC(=O)c5ccc(Nc6ncc(F)c(Nc7ccc(C(=O)Nc8ccccc8Cl)cc7)n6)cc5)CC4)C3)cc2)C(=O)N1 (stereo not drawn) [Compound 8, N-(2-chlorophenyl)-4-((2-((4-((1-((1-(4-(2,6-dioxopiperidin-3-yl)phenyl)azetidin-3-yl)methyl)piperidin-4-yl)carbamoyl)phenyl)amino)-5-fluoropyrimidin-4-yl)amino)benzamide] | > 7.30
12 | B (B is 0.3 to 0.5) | A (A is <0.2) | O=C1CCC(Nc2ccc(N3CC(N4CCc5cc(NC(=O)c6ccc(Nc7ncc(F)c(Nc8ccc(C(=O)Nc9ccccc9Cl)cc8)n7)cc6)ccc5C4)C3)cc2)C(=O)N1 (stereo not drawn) [Compound 36, N-(2-chlorophenyl)-4-((2-((4-((2-(1-(4-((2,6-dioxopiperidin-3-yl)amino)phenyl)azetidin-3-yl)-1,2,3,4-tetrahydroisoquinolin-6-yl)carbamoyl)phenyl)amino)-5-fluoropyrimidin-4-yl)amino)benzamide] | 6.82 to 7.00
